{"source": "patent US6448229B2", "about": "“Gamma secretase inhibitors” (Merck Sharp & Dohme Ltd., priority 2000, dated 2002)", "tested_on": "Notch signalling", "experiment": "Xenopus developmental assay for Notch activity (tail bud formation)", "format": "in vivo, Xenopus laevis", "details": "Xenopus embryos cultured with compound from stage 15 to stage 40", "method": "The following assay was used to determine the effect of compounds on Notch signalling.\nXenopus embryos were cultured in 1/10 NAM [Beck & Slack, Development, 126, 1611-1620, 1999] supplemented with protease inhibitors ([…] stock in DMSO) from stage 15 [P. D. Nieuwkoop and J. Faber, Normal table of Xenopus laevis, Daudin 1967, Reprinted Garland 1994] (24 hours), to stage 40 (3 days). Control siblings were incubated in 1/10 NAM containing 0.05% DMSO. At 3 days they were fixed in batches of 20 and measured using a graduated eyepiece on a Wild dissecting microscope set to 25×. Each tadpole was measured from head to proctodaeum (head and trunk) and from proctodaeum to tail tip (tail). Tail buds were extirpated at stage 30 and cultured for 24 hours as described previously [Tucker & Slack, Development, 121, 249-262, 1995]. Somites were detected by staining with monoclonal antibody 12/101 [Kintner & Brockes, Nature, 308, 67-69, 1984], as described elsewhere [Tucker & Slack, 1995]. In situ hybridisation for Xhox3 has been previously described [Beck & Slack, Mech. Dev., 72, 41-52, 1998]."}
{"smiles": "CC(NC(=O)Cc1cc(F)cc(F)c1)C(=O)NC(C(=O)NCC1CN(c2ccccc2)CCO1)c1ccccc1", "note": "(mixture of isomers) [Example 1, 2-[2-(3,5-Difluorophenyl)acetylamino]-N-{phenyl[(4-phenylmorpholin-2-ylmethyl)carbamoyl]methyl}propionamide]", "values": [{"measurement": "inhibition of tail bud formation", "result": "did not significantly inhibit tail bud formation"}]}
